Assay results published in US8980848B2, “Flavonoid dimers and their use” (The Hong Kong Polytechnic University, priority 2010, dated 2015).
Read-outs that look alike come from different tables or passages of the source.

Columns and labels:
[1] = test system: Ld39 promastigotes (SSG-resistant); assay: In vitro anti-promastigote activity, Ld39; format: cell-based, Leishmania donovani; details: read-out: Anti-promastigotes activity (IC50, μM) Ld39
Procedure: (§1) Cell Lines and Cell Culture. Promastigotes of Leishmania donovani (wild type LdAG83, pentamidine-resistant LdAG83-PentR50, and SSG-resistant Ld39) and Leishmania major [MHOM/IL/67/JERICHO II (Lm50122), from ATCC] were used in this study.
(§2) In Vitro Anti-Promastigote Activity. The viability of promastigotes was determined by the Cell Titer 96° Aqueous Assay (Promega) that employs a tetrazolium compound (MTS, 2-(4,5-Dimethylthiazol-2-yl-)-5-[3-(carboxymethoxy)phenyl]-2-(4-sulfophenyl)-2H-tetrazolium) and electron coupling reagent, phenazine methosulfate (PMS).^7 Promastigotes were seeded into 96-well flat bottom microtiter plate at 1×10^5 cells per well in a final volume of 100 μL medium and incubated with a series concentration of synthetic flavonoid dimers or known antileishmanials. The parasites were incubated at 27° C. for 72 hrs. Fresh solution of 2 mg/mL MTS and 0.92 mg/mL PMS were prepared in a ratio of 20:1 (MTS:PMS). After 72 hrs incubation, 10 μL of MTS:PMS mixture was added into each well of microtiter plate. The plate was then incubated at 27° C. for 4 hrs for color development. After 4 hrs incubation, the OD values were determined at 490 nm using automatic microtiter plate reader (Bio-Rad).

PEM cells = assay: Cytotoxicity, primary mouse peritoneal elicited macrophage (PEM); format: cell-based
Procedure: (§3) (a) Mouse Macrophage Raw 264.7 and Primary Mouse PEM Cells. The cytotoxicity assay of reference antileishmanial compounds and the compounds of this invention was performed against mouse macrophage cell line, Raw 264.7 and primary mouse PEM cells in order to calculate the therapeutic index (IC50 value for cytotoxicity of the compounds divided by IC50 value for antileishmanial activity of the compounds). The cells were grown in supplemented DMEM media in an atmosphere of 95% air with 5% CO2 at 37° C. In brief, Raw264.7 cells and PEM cells were seeded into 96-well flat bottom microtiter plate at 1×10^4cells and 2×10^4 cells per well in a final volume of 100 μL media, respectively. A graded dose of flavonoid dimers or antileishmanials was added into wells. The plate was incubated at 37° C. for 72 hrs at the atmosphere 5% CO2 in the air. The % of survivors was determined.

Ld39 amastigotes = assay: In vitro anti-amastigote activity, Ld39 amastigotes in mouse PEM
Procedure: Peritoneal elicited macrophages (PEM) from mouse were obtained as previously described. A round cover slip (12 mm in diameter) was placed into each well of 24-well culture plate. Mouse macrophages were resuspended in supplemented DMEM media containing 10% heat inactivated fetal bovine serum (v/v), 100 U/mL penicillin and 100 μg/mL streptomycin and seeded into each well at a cell density of 1×10^5 cells per 500 μL. Macrophages were allowed to attach overnight and the non-adherent cells were removed by gentle washing twice with unsupplemented DMEM media. […] Non-internalized promastigotes were removed by washing with unsupplemented DMEM media for two times. Infected macrophages were further incubated in 500 μL supplemented DMEM media in the presence or absence of flavonoid dimers or known antileishmanials for 72 hrs at 37° C. After incubation, the cover slips were stained with Giemsa and the amastigotes inside each macrophage (100 macrophages per treatment) were counted under microscope. The percentage of macrophages infected and number of amastigotes per 100 macrophages was enumerated.
The % of infected macrophage and the number of amastigotes per 100 macrophages were counted by staining with Giemsa.

[2] = test system: LdAG83PentR50 promastigotes (pentamidine-resistant); assay: microbe, parasite or virus in culture; format: cell-based, Leishmania donovani; details: read-out: Anti-promastigotes activity (IC50, μM) LdAG83PentR50
Procedure: as §1
No pentamidine or sodium stibogluconate was added to the L. donovani wild type (LdAG83) and L. major wild type (Lm50122). The mouse macrophage cell line, Raw264.7, was used for the determination of the relative toxicity of the compounds of the invention. […] They were maintained at 37° C. in a humidified atmosphere with 5% CO2. The cells were split constantly after a confluent monolayer has been formed. To split cells, the plate was washed briefly with PBS, treated with 0.05% trypsin-EDTA and harvested by centrifugation.
as §2

[3] = test system: LdAG83 promastigotes (wild type); assay: In vitro anti-promastigote activity, LdAG83; format: cell-based, Leishmania donovani; details: read-out: Anti-promastigotes activity (IC50, μM) LdAG83
Procedure: as §1, §2

Raw264.7 cells = assay: Cytotoxicity, mouse macrophage Raw264.7; format: cell-based
Procedure: as §3

Lm50122 promastigotes = assay: In vitro anti-promastigote activity, Lm50122; format: cell-based, Leishmania major; details: read-out: Anti-promastigotes activity (IC50, μM) Lm50122
Procedure: as §1, §2

Leishmania promastigotes = assay: Anti-promastigote activity over the Leishmania strains; format: cell-based, Leishmania donovani, Leishmania major; details: for IC50: different Leishmania strains, read-out: Anti-promastigote IC50, range over strains
Procedure: as §1, §2

[4] = Cytotoxicity of flavonoid dimers, L929 mouse fibroblast; format: cell-based; details: mouse, L929 fibroblast cells, IC50 of compound alone, 72 hrs, mouse fibroblast
Procedure, shortened: (§4)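 LCC6, LCC6MDR and L929 cells seeded at 1×10^4 cells/well and exposed to graded doses of flavonoid dimers. Incubation 72 hrs at 37° C., 5% CO2. Read-out: % survivors.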

Pgp (LCC6MDR cells) = Pgp (LCC6MDR cells) (Homo sapiens, UniProt P08183); assay: Cell proliferation assay: Pgp-modulating activity, reversal of anticancer drug resistance in LCC6MDR cells; details: for EC50: EC50 of compounds for reversing anticancer drug resistance (nM), Paclitaxel; for EC50 / RF (Relative Fold), cpd at 0.5 μM: LCC6MDR; for Therapeutic index: IC50 of compounds for L929/EC50 of compounds for lowering paclitaxel drug resistance; for RF (Relative Fold), cpd at 0.5 μM: RF = (IC50 without modulator)/(IC50 with 0.5 μM modulator), paclitaxel
Sequence of Pgp (LCC6MDR cells) (P08183 whole entry): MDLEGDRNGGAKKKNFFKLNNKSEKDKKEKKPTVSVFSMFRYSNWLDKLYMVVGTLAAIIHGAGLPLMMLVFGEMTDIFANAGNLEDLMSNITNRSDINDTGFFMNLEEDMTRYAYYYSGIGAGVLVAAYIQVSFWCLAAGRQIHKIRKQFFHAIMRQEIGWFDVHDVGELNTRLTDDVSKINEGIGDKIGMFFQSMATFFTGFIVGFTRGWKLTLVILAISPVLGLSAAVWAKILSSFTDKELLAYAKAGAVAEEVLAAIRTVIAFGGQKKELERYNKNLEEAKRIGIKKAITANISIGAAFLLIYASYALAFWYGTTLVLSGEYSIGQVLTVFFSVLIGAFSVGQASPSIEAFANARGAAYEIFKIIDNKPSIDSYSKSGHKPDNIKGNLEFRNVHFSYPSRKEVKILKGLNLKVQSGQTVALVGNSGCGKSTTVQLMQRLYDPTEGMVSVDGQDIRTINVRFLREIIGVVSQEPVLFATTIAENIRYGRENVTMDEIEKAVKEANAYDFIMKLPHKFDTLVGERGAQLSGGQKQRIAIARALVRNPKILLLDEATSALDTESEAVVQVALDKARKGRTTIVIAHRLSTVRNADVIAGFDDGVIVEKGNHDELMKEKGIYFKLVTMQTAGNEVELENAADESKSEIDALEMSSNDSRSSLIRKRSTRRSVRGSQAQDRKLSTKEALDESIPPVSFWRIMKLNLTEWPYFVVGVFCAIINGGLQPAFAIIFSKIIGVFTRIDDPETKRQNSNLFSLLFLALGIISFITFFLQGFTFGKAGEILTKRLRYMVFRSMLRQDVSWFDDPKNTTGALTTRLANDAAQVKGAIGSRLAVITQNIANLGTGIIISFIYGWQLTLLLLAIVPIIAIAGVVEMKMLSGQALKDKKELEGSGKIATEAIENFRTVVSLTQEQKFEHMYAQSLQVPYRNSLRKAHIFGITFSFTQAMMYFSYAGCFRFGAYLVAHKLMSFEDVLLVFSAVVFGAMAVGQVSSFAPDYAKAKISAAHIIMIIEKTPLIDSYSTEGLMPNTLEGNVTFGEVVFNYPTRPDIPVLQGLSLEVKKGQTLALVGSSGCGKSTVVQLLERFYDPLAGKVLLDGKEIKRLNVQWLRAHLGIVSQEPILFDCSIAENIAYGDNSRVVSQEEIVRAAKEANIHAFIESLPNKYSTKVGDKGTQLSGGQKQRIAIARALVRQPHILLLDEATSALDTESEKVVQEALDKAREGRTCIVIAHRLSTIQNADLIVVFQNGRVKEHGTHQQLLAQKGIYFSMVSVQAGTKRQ
Procedure: Cell Proliferation Assay. 6,000 cells of LCC6 or LCC6MDR and anticancer drugs (paclitaxel, vinblastine, vincristine, doxorubicin and mitoxantrone) were mixed with or without modulators to a final volume of 200 μL in each well of 96-well plates. […] The plates were then incubated for 5 days at 37° C. […] IC50 values were calculated from the dose-response curves of MTS assays (Prism 4.0).

[5] = Tumor cell line cytotoxicity of flavonoid dimers, LCC6; format: cell-based, human; details: human, LCC6 cells, IC50 of compound alone
Procedure, shortened: as §4

[6] = Tumor cell line cytotoxicity of flavonoid dimers, LCC6MDR; format: cell-based, human; details: human, LCC6MDR cells, IC50 of compound alone
Procedure, shortened: as §4

[7] = Cytotoxicity over LCC6, LCC6MDR and L929 cell lines; format: cell-based, human, mouse; details: human, cancer lines LCC6, LCC6MDR and/or L929
Procedure: (b) Tumor Cell Line Cytotoxicity. The tumor cytotoxicity assays of flavonoid dimers were performed against LCC6, LCC6MDR and L929 cell lines. The cells were grown in supplemented DMEM media in an atmosphere of 95% air and 5% CO2 at 37° C. In brief, LCC6, LCC6MDR and L929 cells were seeded into 96-well flat bottom microtiter plate at 1×10^4 cells per well in a final volume of 100 μL media, respectively. A graded dose of flavonoid dimers was added into wells. The plate was incubated at 37° C. for 72 hrs at the atmosphere 5% CO2 in the air. The % of survivors was determined.

[8] = cytotoxicity, primary mouse macrophage, 72 hrs
[9] = mouse, LCC6MDR and L929 cell lines
[10] = Mus musculus, Macrophage, Table 7, cytotoxicity
[11] = Leishmania donovani, in Mus musculus, 72 h, read-out: Ld39 (IC50, mM)

SMILES | IC50 ([1]; Leishmania donovani, 72 h) | IC50 at 72 h [4] | EC50 (Pgp (LCC6MDR cells)) | Therapeutic index (Pgp (LCC6MDR cells)) | RF (Relative Fold), cpd at 0.5 μM (Pgp (LCC6MDR cells)) | IC50 ([3]; Leishmania donovani, 72 h) | IC50 (Raw264.7 cells; Mus musculus, RAW264.7, 72 h) | IC50 at 72 h [5] | IC50 at 72 h [6] | IC50 at 72 h [7, 9] | other results
C[C@@H]1[C@H](O)[C@@H](C)/C=C/C=C/C=C/C=C/C=C/C=C/C=C/[C@H](O[C@@H]2O[C@H](C)[C@@H](O)[C@H](N)[C@@H]2O)C[C@@H]2O[C@](O)(C[C@@H](O)C[C@@H](O)[C@H](O)CC[C@@H](O)C[C@@H](O)CC(=O)O[C@H]1C)C[C@H](O)[C@H]2C(=O)O [Amphotericin B, amphotericin B, reference compound] | – | – | – | – | – | – | – | – | – | – | IC50 ([1]; 3 days at 27° C., MTS): 0.095 ± 0.02 µM; IC50 (PEM cells; [8]): 7.4 µM; IC50 (Ld39 amastigotes; read-out: IC50 against Ld39 amastigotes): 0.062 µM; IC50 ([2]; 3 days at 27° C., MTS): 0.051 µM; IC50 ([3]; 3 days at 27° C., MTS): 0.09 ± 0.02 µM; IC50 (Raw264.7 cells; 72 hrs): 12 µM; IC50 (Lm50122 promastigotes; 3 days at 27° C., MTS): 0.34 ± 0.06 µM
O=c1cc(-c2ccc(OCCOCCNCCOCCOc3ccc(-c4cc(=O)c5ccccc5o4)cc3)cc2)oc2ccccc12 [Compound 12a, 1,13-Bis[4′-(4H-chromen-4-on-2-yl)phenyl]-1,4,10,13-tetraoxa-7-azamidecane] | 2.3 µM | 5.9 ± 0.6 µM | 305 ± 35 nM | 19.3 | (72.9) | 3.3 µM | < 4 µM | 3.3 ± 1 µM | 2.4 ± 0.7 µM | – | IC50 (Leishmania promastigotes): < 4 µM; IC50 ([2]; Leishmania donovani, 72 h): 1.1 µM; IC50 (Raw264.7 cells; 72 hrs, listed as 12): 2.1 ± 0.9 µM
COc1cccc2oc(-c3ccc(OCCOCCN(CCOCCOc4ccc(-c5cc(=O)c6c(OC)cccc6o5)cc4)C(=O)OC(C)(C)C)cc3)cc(=O)c12 [Compound 16d, 1,13-Bis[4′-((5-methoxy)-4H-chromen-4-on-2-yl)phenyl]-7-(tert-butyloxycarbonyl)-1,4,10,13-tetraoxa-7-azamidecane] | – | – | – | – | (14.9) | – | – | 4.6 ± 0.2 µM | 5.4 ± 0.5 µM | – | IC50 at 72 h [7]: < 8 µM
O=c1cc(-c2ccc(OCCOCCN(CCOCCOc3ccc(-c4cc(=O)c5ccccc5o4)cc3)Cc3ccc([N+](=O)[O-])cc3)cc2)oc2ccccc12 [Compound 19, 1,13-Bis[4′-(4H-chromen-4-on-2-yl)phenyl]-N-(4-nitrobenzyl)-1,4,10,13-tetraoxa-7-azamidecane] | > 100 µM | 88 ± 6.1 µM | 189 ± 1 nM | 465.6 | – | > 100 µM | 70.3 ± 9.7 µM | 86.8 ± 1.8 µM | > 90 µM | > 90 µM | IC50 (Lm50122 promastigotes; Leishmania major, 72 h): > 100 µM
COC(=O)c1ccc(CN(CCOCCOc2ccc(-c3cc(=O)c4ccccc4o3)cc2)CCOCCOc2ccc(-c3cc(=O)c4ccccc4o3)cc2)cc1 [Compound 20, 1,13-Bis[4′-(4H-chromen-4-on-2-yl)phenyl]-N-(4-methoxycarbonylbenzyl)-1,4,10,13-tetraoxa-7-azamidecane] | > 100 µM | 11.4 ± 4.4 µM | – | – | (2.1) | > 100 µM | 45.7 ± 19.1 µM | 33.3 ± 10.8 µM | 64.8 ± 14.1 µM | – | IC50 (Lm50122 promastigotes; Leishmania major, 72 h): > 100 µM
O=c1cc(-c2ccc(OCCOCCN(CCOCCOc3ccc(-c4cc(=O)c5ccccc5o4)cc3)Cc3ccccn3)cc2)oc2ccccc12 [Compound 22, 1,13-Bis[4′-(4H-chromen-4-on-2-yl)phenyl]-N-(2-pyridylmethyl)-1,4,10,13-tetraoxa-7-azamidecane] | 2.4 ± 1 µM | 10 µM | – | – | (15.8) | 2.3 ± 0.8 µM | 53 ± 12.7 µM | 10 ± 1.2 µM | 29.7 ± 16.4 µM | – | Fold lower leishmanicidal activity than compound 21 (Leishmania promastigotes): about 10 fold; IC50 (Leishmania promastigotes): 1.8 to 2.4 µM; IC50 (Lm50122 promastigotes; Leishmania major, 72 h): 1.8 ± 0.6 µM
O=C1c2ccccc2C(=O)N1CCN(CCOCCOc1ccc(-c2cc(=O)c3ccccc3o2)cc1)CCOCCOc1ccc(-c2cc(=O)c3ccccc3o2)cc1 [Compound 23c, 1,13-Bis[4′-(4H-chromen-4-on-2-yl)phenyl]-7-[2-(1,3-dioxo-1,3-dihydro-2H-isoindol-2-yl)ethyl]-1,4,10,13-tetraoxa-7-azamidecane] | – | 17 ± 4.3 µM | – | – | (9.6) | – | – | 8.6 ± 3.4 µM | 4.9 ± 0.1 µM | 4.9 to 8.6 µM | –
O=c1cc(-c2ccc(OCCOCCN(CCOCCOc3ccc(-c4cc(=O)c5ccccc5o4)cc3)Cc3ccccc3F)cc2)oc2ccccc12 [Compound 36, 1,13-Bis[4′-(4H-chromen-4-on-2-yl)phenyl]-7-(2-fluorobenzyl)-1,4,10,13-tetraoxa-7-azamidecane] | – | > 100 µM | 179 ± 44 nM | >558.7 | – | – | – | > 100 µM | > 100 µM | > 100 µM | melting point: 82 to 84 °C
O=c1cc(-c2ccc(OCCOCCN(CCOCCOc3ccc(-c4cc(=O)c5ccccc5o4)cc3)Cc3cccc(F)c3)cc2)oc2ccccc12 [Compound 37, 1,13-Bis[4′-(4H-chromen-4-on-2-yl)phenyl]-7-(3-fluorobenzyl)-1,4,10,13-tetraoxa-7-azamidecane] | – | > 87 µM | 258 ± 103 nM | >337.2 | – | – | – | > 100 µM | > 100 µM | > 100 µM | melting point: 91 to 93 °C
O=c1cc(-c2ccc(OCCOCCN(CCOCCOc3ccc(-c4cc(=O)c5ccccc5o4)cc3)Cc3cc(F)c(F)c(F)c3)cc2)oc2ccccc12 [Compound 39, 1,13-Bis[4′-(4H-chromen-4-on-2-yl)phenyl]-7-(3,4,5-trifluorobenzyl)-1,4,10,13-tetraoxa-7-azamidecane] | – | > 100 µM | – | – | – | – | – | > 75 µM | > 100 µM | > 100 µM | –
O=c1cc(-c2ccc(O)c(O)c2)oc2cc(O)cc(O)c12 [Luteolin, luteolin] | – | – | – | – | – | – | – | – | – | – | IC50 (PEM cells; [10]): 77.7 ± 7.7 µM; IC50 (PEM cells; [8]): 77.7 ± 7.7 µM; IC50 (Ld39 amastigotes; [11]): 7.7 ± 3.6 µM
O=c1c(O)c(-c2ccc(O)c(O)c2)oc2cc(O)cc(O)c12 [Quercetin, quercetin] | – | – | – | – | – | – | – | – | – | – | IC50 (PEM cells; [10]): > 100 µM; IC50 (PEM cells; [8]): > 100 µM; IC50 (Ld39 amastigotes; [11]): 6 ± 1.1 µM
